# Experimental data from patent US7179825B2, “Retinoic acid mimetic anilides” (Janssen Pharmaceutica N.V., priority 1997, dated 2007).
# Experiments:
# Ovariectomized rats = assay: Vaginal keratinization test on ovariectomized rats (Example C.2); format: in vivo; details: estradiol undecylate induced keratinization, per os once daily on days 1-3, active dose = 50% of rats show complete suppression
# Procedure, shortened: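 Value is the lowest oral dose (mg/kg) at which half of tested rats show complete suppression of estradiol undecylate-induced vaginal keratinization by histology. Ovariectomized rats received 100 μg/100 g estradiol undecylate s.c., then compound or PEG 200 vehicle p.o. daily for three days; sacrifice one day later.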
# [1] = test system: metabolism of retinoic acid in human breast cancer cells; assay: Inhibition of retinoic acid (RA) metabolism (Example C.1); format: cell-based; details: MCF-7 human breast cancer cells, 3H-RA as substrate; concentration needed to reduce the amount of metabolites to 50% of the control
# Procedure, shortened: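 Test compound (in 1% DMSO) added at several concentrations to MCF-7 cell suspensions fed ³H-RA, after RA induction of metabolism one day earlier. Scintillation counting of the separated polar metabolite fraction; IC50 = concentration giving 50% of control metabolite level.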
SMILES,LAD (lowest active dose) (Ovariectomized rats),IC50 [1]
CCC(CC)C(c1ccc(NC(=O)Cc2ccc(OC)c(OC)c2)cc1)n1ccnc1 (racemic) [Compound 91],2.50 mg/kg,0.935 nM
CCC(CC)C(c1ccc(NC(=O)Cc2ccc(OC(C)C)cc2)cc1)n1ccnc1 (racemic) [Compound 92],5.00 mg/kg,2.21 nM
CCCOc1ccc(CC(=O)Nc2ccc(C(C(CC)CC)n3ccnc3)cc2)cc1 (racemic) [Compound 93],2.50 mg/kg,1.59 nM
CCC(CC)C(c1ccc(NC(=O)Cc2ccc(C)cc2)cc1)n1ccnc1 (racemic) [Compound 94],5.00 mg/kg,1.06 nM
CCOc1ccc(CC(=O)Nc2ccc(C(C(CC)CC)n3ccnc3)cc2)cc1 (racemic) [Compound 95],5.00 mg/kg,1.48 nM
CCCCOc1ccc(CC(=O)Nc2ccc(C(C(CC)CC)n3ccnc3)cc2)cc1 (racemic) [Compound 96],2.50 mg/kg,1.09 nM
CCC(CC)C(c1ccc(NC(=O)Cc2ccc(O)c(OC)c2)cc1)n1ccnc1.O=C(O)C(=O)O (racemic) [Compound 97],2.50 mg/kg,1.32 nM
CCC(CC)C(c1ccc(NC(=O)Cc2cc(OC)ccc2OC)cc1)n1ccnc1 (racemic) [Compound 98],5.00 mg/kg,1.64 nM
CCC(CC)C(c1ccc(NC(=O)Cc2ccc(N(C)C)cc2)cc1)n1ccnc1 (racemic) [Compound 99],2.50 mg/kg,5.77 nM
CCC(CC)C(c1ccc(NC(=O)Cc2cccc(OC)c2OC)cc1)n1ccnc1 (racemic) [Compound 102],5.00 mg/kg,0.0678 nM
CCC(CC)C(c1ccc(NC(=O)Cc2ccc(Oc3ccccc3)cc2)cc1)n1ccnc1 (racemic) [Compound 103],>2.50 mg/kg,7.11 nM
CCC(CC)C(c1ccc(NC(=O)Cc2ccccc2C)cc1)n1ccnc1 (racemic) [Compound 104],2.50 mg/kg,0.0407 nM
CCC(CC)C(c1ccc(NC(=O)Cc2ccc(OC)cc2)cc1)n1ccnc1 (racemic) [Compound 105],2.50 mg/kg,0.0516 nM
CCC(CC)C(c1ccc(NC(=O)Cc2cc(C)ccc2C)cc1)n1ccnc1 (racemic) [Compound 106],2.50 mg/kg,1.69 nM
CCC(CC)C(c1ccc(NC(=O)Cc2ccccc2O)cc1)n1ccnc1 (racemic) [Compound 107],>2.50 mg/kg,1.44 nM
CCC(CC)C(c1ccc(NC(=O)Cc2cccc(O)c2)cc1)n1ccnc1.O=C(O)C(=O)O (racemic) [Compound 109],2.50 mg/kg,0.321 nM
CCC(CC)C(c1ccc(NC(=O)Cc2ccc(C)c(OC)c2)cc1)n1ccnc1 (racemic) [Compound 110],>2.50 mg/kg,0.953 nM
CCC(CC)C(c1ccc(NC(=O)Cc2ccc(O)cc2)cc1)n1ccnc1 (racemic) [Compound 111],>2.50 mg/kg,1.03 nM
CCC(CC)C(c1ccc(NC(=O)Cc2ccc(C)c(C)c2)cc1)n1ccnc1 (racemic) [Compound 112],2.50 mg/kg,0.989 nM
CCC(CC)C(c1ccc(NC(=O)Cc2ccc(Cl)cc2OC)cc1)n1ccnc1 (racemic) [Compound 113],>2.50 mg/kg,0.852 nM
CCC(CC)C(c1ccc(NC(=O)Cc2cccc(OC)c2OCc2ccccc2)cc1)n1ccnc1 (racemic) [Compound 115],>2.50 mg/kg,8.17 nM
CCC(CC)C(c1ccc(NC(=O)Cc2ccc(OC)c(Cl)c2)cc1)n1ccnc1 (racemic) [Compound 116],2.50 mg/kg,0.678 nM
CCC(CC)C(c1ccc(NC(=O)Cc2ccc(O)c(Cl)c2)cc1)n1ccnc1 (racemic) [Compound 117],>2.50 mg/kg,0.255 nM
